The values below come from paper PMC7730961, “Discovery of Novel Dual Extracellular Regulated Protein Kinases (ERK) and Phosphoinositide 3-Kinase (PI3K) Inhibitors as a Promising Strategy for Cancer Therapy” (Molecules, 2020).

Data set [1] in a line: In vivo pharmacokinetic study in SD rats. Further details: species or system Sprague Dawley rats. The note with it: for MRT last: read-out: MRT0–t. As to the method: The pharmacokinetic experiment was conducted by using 180–220 g male Sprague Dawley rats (purchased from Weitong Lihua Experimental Animal Co., Ltd., Beijing, China). The experimental animals were raised in a well-ventilated, air-conditioned standard animal room where the temperature was maintained at 20–25 °C, the humidity was maintained at 40–70%, and the light and dark were rotated for 12 h each. After about 5 days of normal feeding, rats with good physical signs can enter this experiment after veterinary inspection. All rats were fasted for 12 h before the start of the animal experiment. The 32d was dissolved in a mixture of 40% DMSO + 40% PEG400 + 20% 5% glucose injection at a concentration of 1 mg/mL (1 mg/kg). The 32d was administered to the […] by p.o. (0.2 mg/mL, 10 mg/kg), and blood samples (about 0.25 mL) were collected from the posterior orbital venous plexus after different time points (i.v.: 2 min, 15 min, 30 min, 1 h, 2 h, 4 h, 6 h, 8 h, and 12 h; po: 5 min, 15 min, 30 min, 1 h, 2 h, 4 h, 6 h, 8 h, 12 h, and 24 h) after dosing, with three […] for each time point. The whole plasma samples were kept frozen at −20 °C until LC/MS/MS analysis after centrifugation. WinNolin 8.2 software was used to calculate pharmacokinetic parameters, and GraphPad Prism 8.0 was used to draw plasma concentration-time curves.

Data set [2] in a line: In vitro pharmacokinetic study, oxidation metabolism in human liver microsomes. It is filed as in vitro ADME. The note with it: n = 3. As to the method: The pharmacokinetic experiment was conducted by using human liver microsome (purchased from Research Institute for Liver Diseases (Shanghai) Co., Ltd., Shanghai, China). The reaction mixture contained 100 μL PBS, 40 μL liver microsome and 20 μL dilution of compound 32d. After the reaction mixtures were preconducted at 37 °C for 5 min, 40 μL NADPH solution was added to start pharmacokinetic reaction, and samples were collected at different time points (5 min, 10 min, 15 min, 30 min and 45 min). Then, 100 μL of ethyl acetate was added to stop the reaction. The whole samples were added in 10 μL of an internal standard (Phenacetin) to shake for 10 min and centrifuge at 10,000 rpm for 10 min and then taken out 300 μL of supernatant.for LC/MS/MS analysis. WinNolin 8.2 software was used to calculate pharmacokinetic parameters, and GraphPad Prism 8.0 was used to draw concentration-time curves.

A further data set has as its system HCT-116 xenograft. Briefly: In vivo antitumor activity, HCT-116 xenograft in nude mice. Further details: species or system Balb/c-nude mice. As to conditions: intraperitoneal once daily, 21 days, 32d 5 mg/kg, BVD-523 5 mg/kg, GDC-0980 1 mg/kg. As to the method: Male five-week-old Balb/c-nude mice (18–20 g) were injected subcutaneously with HCT-116 cells (5 × 10^7/mL cells suspended in Matrigel Matrix). […] All mice were administered by intraperitoneal q.d. The tumor volumes were measured using electronic digital calipers every 3 days and were calculated as 1/2 length × width × width.

For another data set, the target named is PI3Kα (Homo sapiens, UniProt P42336). The data set can be described thus: Enzymatic inhibition assay (ADP-Glo Plus luminescence kinase assay), PI3Kα. It is filed as biochemical. The note with it: for inhibition at 0.1 µM: 100 nM compound. As to the method: The 50 µL reaction mixture contains 40 mM Tris-HCl, pH 7.4, 10 µM ATP, 10 mM MgCl2, 0.1 mg/mL BSA, 1 mM DTT, 0.2 ug/mL ERK 2, ERK 1, PI3Kα, PI3Kβ, PI3Kγ or PI3Kδ and 100 uM lipid substrate. All compounds were diluted in 10% DMSO and tested in 10-dose with 3-fold serial dilution starting at a concentration of 1 μM. Of the dilution, 5 µL was added to a 50 µL reaction so that the final concentration of DMSO is 1% in all of reactions. After all of the reaction mixtures were conducted at 30 °C for 40 min, the assay was performed using ADP-Glo Plus luminescence kinase assay kit. The luminescence signal and the intensity of the luminescence signal value were detected using a multi-well spectrophotometer (the MD-SpectraMax M5 multifunctional microplate reader). It was directly proportional to the […] enzyme activity. The experimental results were converted into active percentages, a dose-response curve is drawn, and the IC50 value of inhibition was calculated using […] PRISM 5 nonlinear regression.
(In general: ADP-Glo turns the ADP formed in a reaction into a luminescent signal.)

Another data set has as its target ERK 2 (Homo sapiens, UniProt P28482). Briefly: Enzymatic inhibition assay (ADP-Glo Plus luminescence kinase assay), ERK2. It is filed as biochemical. The note with it: for inhibition at 0.1 µM: 100 nM compound. As to the method: All compounds were diluted in 10% DMSO and tested in 10-dose with 3-fold serial dilution starting at a concentration of 1 μM. Of the dilution, 5 µL was added to a 50 µL reaction so that the final concentration of DMSO is 1% in all of reactions. After all of the reaction mixtures were conducted at 30 °C for 40 min, the assay was performed using ADP-Glo Plus luminescence kinase assay kit. The luminescence signal and the intensity of the luminescence signal value were detected using a multi-well spectrophotometer (the MD-SpectraMax M5 multifunctional microplate reader). It was directly proportional to the inhibition of enzyme activity.

Another data set has as its system HCT116. The data set can be described thus: Anti-proliferation assay (MTT, 72 h), HCT116. It is filed as cell-based. As to conditions: Homo sapiens, HCT-116, HCT116 cells. As to the method: (§1) Human cancer cell lines HCT116 and HEC1B were cultured in media with 10% FBS (GIBCO, Invitrogen Corporation, NY, USA) at 37 °C in a 5% (v/v) CO2 humidified incubator. The logarithmic growth phase cells were seeded in a 96-well plate with a density of 1 × 10^5 cells/mL, cultured at 37 °C, 5% CO2. Until the cells were 90% confluent, the medium containing compound was added to incubate for 72 h, and then the cell viability was tested by MTT analysis. Taking the drug concentration as the abscissa and the percentage of proliferation inhibitory activity corresponding to each concentration as the ordinate, using Graphpad Prism 5 to do nonlinear regression, the IC50 value of each compound was calculated.

Another data set concerns HEC1B. The data set can be described thus: Anti-proliferation assay (MTT, 72 h), HEC1B. It is filed as cell-based. As to conditions: Homo sapiens, HEC-1B, HEC1B cells. As to the method:
as §1

Another data set is described as follows: Solubility. As to conditions: relative to parent after introducing a hydrophilic group at the pyrazole NH. It is filed as physicochemical.
Setting [3] is: male, Sprague-Dawley, rat, plasma, iv, i.v. 1 mg/kg.
The mark [4] stands for this setting: male, Sprague-Dawley, rat, plasma, po, p.o. 10 mg/kg.

By AUC(0-inf) is commonly meant the area under the concentration-time curve extrapolated to infinity. Lower therefore signals less exposure. The AUC(0-t) is the area under the concentration-time curve up to a stated or last time point. Higher therefore signals high exposure. As a reminder, the Cmax is the highest concentration seen after dosing. In general, clearance refers to a measure of how efficiently the substance is removed, as volume per time. Read a low clearance as inefficient removal. One may read the half-life as how long it takes for the measured level to halve. Read a low half-life as fast loss. By bioavailability is commonly meant the share of a dose that reaches the circulation, judged against a reference dose that is usually intravenous. The term microsomal CLint denotes a measure of how fast metabolising enzymes remove a compound, apart from limits set by blood flow. High values mean rapid turnover, low ones slow turnover. The IC50 is the concentration that gives 50% inhibition. What is called inhibition is the share of the control response that was lost under treatment.

Like-named read-outs stand apart in the source and are kept apart here.

Chain of PI3Kα (P42336 whole entry): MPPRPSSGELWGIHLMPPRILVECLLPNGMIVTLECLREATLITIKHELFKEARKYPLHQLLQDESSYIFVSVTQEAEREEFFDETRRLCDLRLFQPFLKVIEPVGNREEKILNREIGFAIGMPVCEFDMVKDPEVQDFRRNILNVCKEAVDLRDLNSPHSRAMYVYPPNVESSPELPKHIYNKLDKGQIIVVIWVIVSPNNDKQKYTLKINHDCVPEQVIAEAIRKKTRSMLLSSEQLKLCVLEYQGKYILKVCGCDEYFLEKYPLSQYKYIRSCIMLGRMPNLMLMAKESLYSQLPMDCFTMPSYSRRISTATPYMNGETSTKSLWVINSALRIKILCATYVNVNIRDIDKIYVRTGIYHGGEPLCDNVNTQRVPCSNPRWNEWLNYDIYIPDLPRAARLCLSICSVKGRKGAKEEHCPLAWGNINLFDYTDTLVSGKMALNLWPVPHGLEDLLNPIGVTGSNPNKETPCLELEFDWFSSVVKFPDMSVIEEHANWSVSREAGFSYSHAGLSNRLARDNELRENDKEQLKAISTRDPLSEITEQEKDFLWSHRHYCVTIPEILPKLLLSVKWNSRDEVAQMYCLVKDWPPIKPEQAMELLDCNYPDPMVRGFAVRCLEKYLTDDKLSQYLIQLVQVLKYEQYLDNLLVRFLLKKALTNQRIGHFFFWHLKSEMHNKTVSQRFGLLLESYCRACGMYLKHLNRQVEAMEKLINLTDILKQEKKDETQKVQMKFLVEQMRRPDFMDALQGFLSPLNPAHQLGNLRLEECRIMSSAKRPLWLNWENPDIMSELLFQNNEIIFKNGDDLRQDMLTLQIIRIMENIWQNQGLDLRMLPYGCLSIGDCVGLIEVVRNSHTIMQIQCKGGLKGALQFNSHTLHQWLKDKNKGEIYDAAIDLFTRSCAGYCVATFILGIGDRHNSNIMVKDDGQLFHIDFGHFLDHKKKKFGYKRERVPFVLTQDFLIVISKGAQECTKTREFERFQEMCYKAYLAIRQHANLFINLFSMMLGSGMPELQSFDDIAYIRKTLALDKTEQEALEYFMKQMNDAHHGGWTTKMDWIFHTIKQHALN
Chain of PI3Kα (P27986 whole entry partner): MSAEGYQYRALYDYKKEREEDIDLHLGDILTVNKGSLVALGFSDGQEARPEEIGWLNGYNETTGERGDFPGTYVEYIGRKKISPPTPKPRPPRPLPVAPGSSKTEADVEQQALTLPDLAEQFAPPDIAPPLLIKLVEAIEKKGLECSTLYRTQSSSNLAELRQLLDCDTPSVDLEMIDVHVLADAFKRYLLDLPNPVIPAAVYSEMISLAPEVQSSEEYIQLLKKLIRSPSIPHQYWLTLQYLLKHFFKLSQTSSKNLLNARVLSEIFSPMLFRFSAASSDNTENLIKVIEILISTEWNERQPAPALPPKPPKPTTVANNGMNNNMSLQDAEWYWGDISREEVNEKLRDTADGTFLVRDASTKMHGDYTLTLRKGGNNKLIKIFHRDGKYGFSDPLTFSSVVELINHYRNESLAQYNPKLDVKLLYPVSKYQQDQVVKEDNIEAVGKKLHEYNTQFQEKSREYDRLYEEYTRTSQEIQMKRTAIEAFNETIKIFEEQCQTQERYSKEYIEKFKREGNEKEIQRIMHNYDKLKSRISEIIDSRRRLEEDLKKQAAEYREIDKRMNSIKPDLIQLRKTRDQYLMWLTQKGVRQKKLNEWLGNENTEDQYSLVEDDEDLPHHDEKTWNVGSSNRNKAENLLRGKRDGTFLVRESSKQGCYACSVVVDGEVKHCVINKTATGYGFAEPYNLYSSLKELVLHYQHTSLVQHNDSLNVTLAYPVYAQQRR
Chain of ERK 2 (P28482 whole entry): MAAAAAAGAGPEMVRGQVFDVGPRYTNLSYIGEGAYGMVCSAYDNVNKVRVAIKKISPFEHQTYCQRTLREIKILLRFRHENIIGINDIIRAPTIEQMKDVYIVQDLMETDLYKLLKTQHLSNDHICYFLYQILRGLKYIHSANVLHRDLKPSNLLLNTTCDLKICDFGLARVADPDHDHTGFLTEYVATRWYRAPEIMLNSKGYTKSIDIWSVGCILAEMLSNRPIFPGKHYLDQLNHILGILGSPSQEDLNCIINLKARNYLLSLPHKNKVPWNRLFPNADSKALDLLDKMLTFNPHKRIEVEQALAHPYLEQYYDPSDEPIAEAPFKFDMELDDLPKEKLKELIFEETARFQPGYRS

As for `O=C(Nc1ncc2ncc(-c3cn[nH]c3)cc2n1)NC1CCCC1` [32d, 1-(7-(1H-pyrazol-4-yl)pyrido[3,2-d]pyrimidin-2-yl)-3-cyclopentylurea], in data set [1] (setting [3]), the AUC(0-inf) was found to be 379 ng·h/mL, the AUC(0-t) is 368 ng·h/mL, the peak concentration (Cmax) worked out at 1310 ng/mL and the clearance worked out at 44.8 mL/min/kg. In addition, in data set [1] (setting [3]), the half-life is 139 min and the MRT last is 0.99 h. Besides, in data set [1] (male, Sprague-Dawley, rat, plasma, iv, i.v. 1 mg/kg, read-out: Vz), the Vd worked out at 9.12 L/kg. Further, the bioavailability in data set [1] (male, Sprague-Dawley, rat, plasma, oral, p.o. 10 mg/kg vs i.v. 1 mg/kg, read-out: oral bioavailability (F)) worked out at 9.37%. In data set [1] (setting [4]), the total exposure AUC(0-inf) amounted to 355 ng·h/mL, the area under the curve AUC(0-t) came to 192 ng·h/mL, the Cmax was 129 ng/mL and the half-life was 159 min. The MRT last in data set [1] (setting [4]) came to 2.93 h. In addition, in data set [1] (p.o. 10 mg/kg), the CL stood at 727.9 mL/kg/min and the Vz came out at 244740 mL/kg. In addition, the K in data set [2] (90 ng/mL) came out at 0.004 min⁻¹. In data set [2], this molecule gave a half-life at 90 ng/mL of 173 min and an intrinsic clearance (microsomal CLint) at 90 ng/mL of 16 µL/min/mg. For the same molecule, in the data set on HCT-116 xenograft, the “body weight of nude mice during treatment” value was “no observed body weight loss”. For the same molecule, the “TGI (tumor growth inhibitory rate)” value in the data set with HCT-116 xenograft (nude mice, combination 2.5 mg/kg + 0.5 mg/kg) is recorded as 51%. Moreover, on PI3Kα, the IC50 was 59 nM and the inhibition at 0.1 µM amounted to 51.4%. Besides, on ERK 2, the IC50 is 73 nM and the inhibition at 0.1 µM turned out to be 49.3%. 726 nM corresponded to half-maximal inhibition in the data set on HCT116 (IC50). Also, in the data set on HEC1B, the midpoint of inhibition, the IC50, lay at 1490 nM.

Turning to `O=C(Nc1ncc2ncc(-c3cnn(CCN4CCOCC4)c3)cc2n1)NC1CCCC1` [32l, 1-Cyclopentyl-3-(7-(1-(2-morpholinoethyl)-1H-pyrazol-4-yl)pyrido[3,2-d]pyrimidin-2-yl)urea], the solubility result in the data set “Solubility” is given as “ameliorated”. Besides, the values for the inhibition at 0.1 µM at PI3Kα and at ERK 2 were 63.8% and 21.4%, respectively. Further, the IC50 worked out at 1760 nM in the data set with HCT116 and 3630 nM in the data set with HEC1B.

As for `CN(C)CCn1cc(-c2cnc3cnc(NC(=O)NC4CCCC4)nc3c2)cn1` [32m, 1-Cyclopentyl-3-(7-(1-(2-(dimethylamino)ethyl)-1H-pyrazol-4-yl)pyrido[3,2-d]pyrimidin-2-yl) urea], in “Solubility”, the solubility result is recorded as “ameliorated”. Further, the figures for the inhibition at 0.1 µM at PI3Kα and at ERK 2 were 41% and 8.4%, respectively.
